Assay results reported in ChEMBL document CHEMBL4422633, “Antioxidant-Inspired Drug Discovery: Antitumor Metabolite Is Formed in Situ from a Hydroxycinnamic Acid Derivative upon Free-Radical Scavenging” (J Med Chem, 2019).
Calls of active or inactive are those of the source. The calls are words filed in the database; no cut-off is given here.

Legend:
[1] = Induction of apoptosis in human NCI-H460/R cells transfected with MDR assessed as viable cells at 10 uM after 24 hrs by Annexin V/propidium iodide-staining based flow cytometry (reference value: 95.76 +/- 2.87%); format: functional; conditions: NCI-H460, 24 h, read-out: Activity
[2] = Induction of apoptosis in human NCI-H460/R cells transfected with MDR assessed as early apoptotic cells at 10 uM after 24 hrs by Annexin V/propidium iodide-staining based flow cytometry (reference value: 0.22 +/- 0.01%); format: functional
[3] = target: T1, Serine/threonine-protein kinase Chk1 (Homo sapiens) (UniProt O14757); test: Inhibition of CHK1 phosphorylation at S345 in human MCF7 cells at 10 uM pretreated for 30 mins followed by 10 J/m'2 irradiation and measured after 1 hr by Western blot analysis; format: cell-based
T1 sequence (whole entry): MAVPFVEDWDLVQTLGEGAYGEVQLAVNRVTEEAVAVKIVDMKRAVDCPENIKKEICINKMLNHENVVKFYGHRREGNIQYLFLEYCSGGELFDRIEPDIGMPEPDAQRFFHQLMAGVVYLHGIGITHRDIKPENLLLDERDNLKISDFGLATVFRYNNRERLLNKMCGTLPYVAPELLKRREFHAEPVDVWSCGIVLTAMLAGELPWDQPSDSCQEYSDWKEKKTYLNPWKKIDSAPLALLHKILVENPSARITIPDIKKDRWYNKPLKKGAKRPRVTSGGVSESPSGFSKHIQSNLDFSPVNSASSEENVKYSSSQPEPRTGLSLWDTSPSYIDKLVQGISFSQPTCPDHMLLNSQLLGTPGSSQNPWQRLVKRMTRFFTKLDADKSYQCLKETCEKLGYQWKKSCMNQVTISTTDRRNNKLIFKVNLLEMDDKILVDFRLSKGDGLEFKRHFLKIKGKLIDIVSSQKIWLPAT

[4] = test system: NCI-H661; test: Induction of ROS generation in human NCI-H661 cells assessed as increase DHE positive cells at 10 uM after 24 hrs by DHE-staining based flow cytometry; format: functional, cell-based
[5] = test system: A549; test: Induction of DNA damage response in human A549 cells assessed as increase in H2AX expression at 10 uM after 24 hrs by alexa fluor 488-staining based flow cytometry; format: functional, cell-based
[6] = test system: HeLa; test: Cytotoxicity against human HeLa cells assessed as reduction in cell viability after 72 hrs by MTT assay; format: functional, cell-based
[7] = test system: NCI-H460; test: Cytotoxicity against human NCI-H460 cells assessed as reduction in cell viability after 72 hrs by MTT assay; format: functional, cell-based; conditions: NCI-H460, 72 h
[8] = test system: NCI-H661; test: Induction of apoptosis in human NCI-H661 cells assessed as early apoptotic cells at 10 uM after 24 hrs by Annexin V/propidium iodide-staining based flow cytometry (reference value: 0.31 +/- 0.01%); format: functional
[9] = Drug level using p-coumaric acid methyl ester assessed as compound formation by reverse phase-HPLC and HPLC-MS analysis based Fenton reaction assay; format: physicochemical
[10] = test system: NCI-H661; test: Induction of apoptosis in human NCI-H661 cells assessed as viable cells at 10 uM after 24 hrs by Annexin V/propidium iodide-staining based flow cytometry (reference value: 96.16 +/- 0.96%); format: functional; conditions: NCI-H661, 24 h, read-out: Activity

inhibition [3]: Active
Drug uptake [9]: Active
Compound: COC(=O)/C=C/C1(O)C=CC(=O)C=C1
viability at 10 µM [1]: 90%
Activity [2]: 0.12%
Activity [4]: Active
Activity [5]: Active
IC50 [6]: 9.85 µM
IC50 [7]: 1.85 µM
Activity [8]: 0.18%
viability at 10 µM [10]: 45.4%
